Experimental data: patent publication US6218384A, “3-Oxo-pyrido(1,2-a)benzimidazole-4-carboxyl and 4-oxo-azepino(1,2-a)benzimidazole-5-carboxyl derivatives useful in treating central nervous system disorders” (Ortho-McNeil Pharmaceutical, Inc., priority 1997, dated 2001)
pIC50: −log10 of the molar value. Read-outs that look alike come from different tables or passages of the source.

How the values were obtained:
[1] = Suppression of metrazol-induced convulsions; type: in vivo, male CD1 mice; settings: mice; for ED50: Mus musculus, 0.5 h; for Metrazol (ip) ED50: 30 min
Experimental: Selected compounds of the invention were tested for their ability to reduce metrazol-induced convulsions in mice (Swinyard, E. A. J. Am. Pharm Assoc. 1949, 38, 201). Male CD1 mice, were fasted at least 16 hours, were divided into equal groups and test compounds or vehicle were administered parenterally. Water was not withheld except during the period of observations. At the time of suspected peak activity, anti-pentylenetetrazol (anti-metrazol) activity was evaluated by the subcutaneous administration of the CD90 dose of metrazol (the dose of metrazol was determined from the dose-response curve producing clonic convulsions in 90% of animals that received the corresponding vehicle for this experiment). Metrazol was dissolved in 0.9% sodium chloride solution, and its dose volume was 10 ml/kg. Animals were housed individually for observation of clonic convulsions, tonic convulsions and death for a period of 30 min. Test compounds that blocked the clonic seizure component of the convulsion in at least 50% of the animals were considered active. The biological assay was considered to be valid if the effects of a known anticonvulsant (positive control) were detected, within the same experiment. Activity was reported as percent reduction of clonic convulsions from the vehicle group. The ED50 values of active compounds were calculated by the method of probits (Finney, D. J. 1971. Probit Analysis. London: Cambridge University Press) and are listed in Tables 1 to 5.

[2] = target: benzodiazepine site of the GABA-A receptor; assay: Benzodiazepine Receptor Binding Assay (inhibition of 3H-flunitrazepam binding); settings: ca. 3 nM 3H-flunitrazepam
[3] = Suppression of anxiety (punished licking, conflict test) in the adult male rat; type: in vivo, male rats
Experimental: The anxiolytic activity of selected compounds of the invention was assessed by determining their ability to release (disinhibit) behavior that had been suppressed by punishment (Vogel, J. R. et al. Psychopharmacology 1971, 21, 1). Male rats were deprived of water for 48 hours and were deprived of food for 24 hours prior to testing. After the first 24 hours of water deprivation, they were placed in the conflict chamber for a training period; wherein, they were allowed 200 unpunished licks from a bottle containing tap water. The experiment was run the next day. At the expected time of peak activity, the animals were placed in the chamber and allowed access to tap water. […] Their first lick initiates a 3-min test session. Subsequently,every 20th lick was punished by a 0.2-s shock delivered via the stainless-steel drinking-tube. Vehicle-treated control animals generally were willing to accept a median number of 3 to 8 shocks per test session. […] The Wilcoxon rank-sum test (Mann-WhitneyU-test) was used to test for an increase (p<0.05, 1-tailed) in the median number of shocks in drug-treated groups, compared to a concurrently run vehicle-treated group. The biological assay is considered to be valid if the effects of a known anxiolytic (positive control) are detected, within the same experiment. A compound was considered active if there is a significant difference in the median number of shocks tolerated between the drug-treated group and the control group. The MED was defined as the minimum dose of the drug-treatment as analyzed using the Wilcoxon rank-sum test (SAS; Statistical Analysis System, version 5.16). If the MED value is greater than 10, an active dose of the compound being tested had not been determined.

[4] = Table 1, ip, clonic convulsions after sc CD90 metrazol, >30 = active dose not determined, read-out: Metrazol (ip) ED50
[5] = Table 1, 25° C., 10-20 min, >10,000 = not active
[6] = Table 1, ip, minimum effective dose, >10 = active dose not determined, read-out: Conflict (ip) MED
[7] = Table 5, parenteral, clonic convulsions, read-out: Antimetrazol ED50
[8] = Table 5, minimum effective dose, read-out: Conflict MED
[9] = Table 1, ip, clonic convulsions after sc CD90 metrazol, >30 = active dose not determined
[10] = Table 1, ip, minimum effective dose, >10 = active dose not determined
[11] = Table 3, parenteral, clonic convulsions, read-out: Antimetrazol ED50
[12] = Table 3, minimum effective dose, read-out: Conflict MED

Compound	ED50 [1, 4]	pIC50 [2, 5]	minimal effective dose [3, 6]	other results
Cc1cc(NC(=O)C2=C3Nc4ccccc4N3CCC2=O)ccn1 [compound 100]	> 10 mg/kg	6.09	> 10 mg/kg	
CN1C2=C(C(=O)Nc3c(F)cc(F)cc3F)C(=O)CCCN2c2ccccc21 [compound 157]				ED50 [1, 7]: > 10 mg/kg; pIC50 ([2]; Table 5): 7.28; minimal effective dose [3, 8]: > 10 mg/kg
CN1C2=C(C(=O)Nc3ccncc3)C(=O)CCCN2c2ccccc21 [compound 153]				ED50 [1, 7]: > 10 mg/kg; pIC50 ([2]; Table 5): 5.59; minimal effective dose [3, 8]: > 10 mg/kg
CCOC(=O)c1ccc(NC(=O)C2=C3Nc4ccccc4N3CCC2=O)cc1 [compound 27]	> 30 mg/kg	< 5.00	< 10 mg/kg	
O=C1CCN2C(=C1C(=O)NCc1ccccc1)Nc1ccccc12 [compound 32]	> 30 mg/kg	7.42	> 10 mg/kg	
1,2-Dihydro-3-hydroxy-N-phenylpyrido(1,2-a)benzimidazole-4-thiocarboxamide [CP 117]		7.34		Metrazol (ip) ED50 [1, 9]: > 30 mg/kg; Conflict (ip) MED [3, 10]: 10 mg/kg
O=C1CCN2C(=C1C(=O)Nc1ccccc1)Nc1cc(Cl)ccc12 [compound 81]	> 10 mg/kg	7.18	10 mg/kg	
O=C1CCCN2C(=C1C(=O)Nc1ccccc1)Nc1ccccc12 [compound 143]				ED50 [1, 7]: > 10 mg/kg; pIC50 ([2]; Table 5): 6.98; minimal effective dose [3, 8]: 10 mg/kg
Cc1nnc(NC(=O)C2=C3Nc4ccccc4N3CCC2=O)s1 [compound 64]	> 10 mg/kg	5.96	> 10 mg/kg	
O=C1CCN2C(=C1C(=O)Nc1c(F)cccc1F)Nc1cc(Cl)ccc12 [compound 114]	1 mg/kg	8.22	3 mg/kg	
N#Cc1ccc(NC(=O)C2=C3Nc4ccccc4N3CCC2=O)cc1 [compound 54]	> 10 mg/kg	4.89	< 10 mg/kg	
O=C1CCN2C(=C1C(=O)Nc1c(F)c(F)c(F)c(F)c1F)Nc1ccccc12 [compound 91]	1 to 10 mg/kg	6.57	10 mg/kg	
O=C1CCN2C(=C1C(=O)Nc1ccnc(Cl)c1)Nc1ccccc12 [compound 52]	> 10 mg/kg	5.85	> 10 mg/kg	
O=C1CCN2C(=C1C(=O)Nc1c(Cl)c(F)nc(F)c1Cl)Nc1ccccc12 [compound 67]	10 mg/kg	5.00	10 mg/kg	
O=C1CCN2C(=C1C(=O)Nc1ncccn1)Nc1ccccc12 [compound 46]	3 mg/kg	7.27	10 mg/kg	
O=C1CCN2C(=C1C(=O)Nc1cc(F)ccc1F)Nc1ccccc12 [compound 98]	> 30 mg/kg	7.92	> 30 mg/kg	
CN1C2=C(C(=O)Nc3ccncc3)C(=O)CCN2c2ccccc21 [compound 126]				ED50 [1, 11]: 3 mg/kg; pIC50 ([2]; Table 3): 6.64; minimal effective dose [3, 12]: < 10 mg/kg

Compound	ED50 [1, 4]	pIC50 [2, 5]	minimal effective dose [3, 6]	other results
CN1C2=C(C(=O)Nc3ccccc3)C(=O)CCCN2c2ccccc21 [compound 144]				ED50 [1, 7]: > 10 mg/kg; pIC50 ([2]; Table 5): 7.55; minimal effective dose [3, 8]: > 10 mg/kg
O=C1CCN2C(=C1C(=O)Nc1c(F)cc(F)cc1F)Nc1cc(Cl)ccc12 [compound 104]	1 mg/kg	7.89	10 mg/kg	
CSc1ccc(NC(=O)C2=C3Nc4ccccc4N3CCC2=O)cc1 [compound 23]	10 mg/kg	6.40	> 10 mg/kg	
N-(4-Pyridyl)-1,2-dihydro-3-hydroxypyrido-(1,2-a)benzimidazole-4-carboxamide [CP 35]		8.04		Metrazol (ip) ED50 [1, 9]: 3 mg/kg; Conflict (ip) MED [3, 10]: 10 mg/kg
CC(C)NC(=O)C1=C2Nc3ccccc3N2CCC1=O [compound 105]	> 10 mg/kg	7.34	> 10 mg/kg	
CN(C)c1ccc(NC(=O)C2=C3N(C)c4ccccc4N3CCC2=O)cc1 [compound 124]				ED50 [1, 11]: 1 to 3 mg/kg; pIC50 ([2]; Table 3): 7.54; minimal effective dose [3, 12]: 10 mg/kg
O=C1CCN2C(=C1C(=O)NC1CC1)Nc1ccccc12 [compound 43]	> 10 mg/kg	7.80	> 10 mg/kg	
O=C1CCN2C(=C1C(=O)Nc1ccc(F)cc1)Nc1ccccc12 [compound 45]	> 30 mg/kg	6.37	10 mg/kg	
Cc1cc(N(C)C)ccc1NC(=O)C1=C2Nc3ccccc3N2CCC1=O [compound 85]	10 mg/kg	5.40	> 10 mg/kg	
O=C1CCN2C(=C1C(=O)Nc1ccc(F)cc1F)N(Cc1ccccc1)c1ccccc12 [compound 129]				ED50 [1, 11]: 1 mg/kg; pIC50 ([2]; Table 3): 7.92; minimal effective dose [3, 12]: > 10 mg/kg
O=C1CCN2C(=C1C(=O)Nc1ccc3ncsc3c1)Nc1ccccc12 [compound 72]	> 10 mg/kg	5.00	< 10 mg/kg	
Phenyl-1,2-dihydro-3-hydroxypyrido(1,2-a)benzimidazole-4-carboxylate [CP 118]		7.39		Metrazol (ip) ED50 [1, 9]: 3 mg/kg; Conflict (ip) MED [3, 10]: 10 mg/kg
O=C1CCN2C(=C1C(=O)Nc1cccnc1Cl)Nc1ccccc12 [compound 70]	3 mg/kg	7.17	10 mg/kg	
O=C1CCN2C(=C1C(=O)Nc1ccccc1F)Nc1ccccc12 [compound 20]	0.1 mg/kg	8.77	1 mg/kg	
CSc1ccccc1NC(=O)C1=C2Nc3ccccc3N2CCC1=O [compound 40]	> 10 mg/kg	6.14	> 10 mg/kg	
CN(C)c1ccc(NC(=O)C2=C3N(C)c4ccccc4N3CCCC2=O)cc1 [compound 150]				ED50 [1, 7]: > 10 mg/kg; pIC50 ([2]; Table 5): 5.51; minimal effective dose [3, 8]: > 10 mg/kg
O=C1CCN2C(=C1C(=O)Nc1ccc3[nH]nnc3c1)Nc1ccccc12 [compound 73]	> 10 mg/kg	6.80	> 10 mg/kg	
